Source: patent US4753953A, “Pyridonecarboxylic acid derivatives and antibacterial pharmaceutical compositions thereof” (priority 1985, dated 1988)
Converted amounts (≈) assume the structure as drawn. Where two headings read alike, the source gives them in different places.

Assays:
C. perfringens KYA 13123 = assay: microbe, parasite or virus in culture; format: cell-based; conditions: Clostridium perfringens, KYA13123
S. aureus Smith = assay: MIC, in vitro antibacterial activity (standard strains); format: cell-based, Staphylococcus aureus; conditions: Staphylococcus aureus; 10^6 cells/ml; Gram +; read-out: MIC
[1] = system: Streptococcus pyogenes (S-8); assay: as above; format: cell-based; conditions: Streptococcus pyogenes; 10^6 cells/ml; Gram +; read-out: MIC
[2] = system: Propionibacterium acens 11828; assay: as above; format: cell-based; conditions: Propionibacterium, 11828; 10^6 cells/ml; Gram +; read-out: MIC
S. epidermidis IID 866 = assay: as above; format: cell-based; conditions: Staphylococcus epidermidis, IID866; 10^6 cells/ml; Gram +; read-out: MIC
[3] = system: Alcaligenes faecalis 0114002; assay: as above; format: cell-based; conditions: Alcaligenes faecalis, 0114002; 10^6 cells/ml; Gram -; read-out: MIC
E. faecalis IID 682 = assay: as above; format: cell-based; conditions: Enterococcus faecalis, IID682; 10^6 cells/ml; Gram +; read-out: MIC
[4] = system: Acinetobacter anitratus IID 876; assay: as above; format: cell-based; conditions: Acinetobacter calcoaceticus, IID876; 10^6 cells/ml; Gram -; read-out: MIC
E. coli ML 4707 = assay: as above; format: cell-based, Escherichia coli; conditions: Escherichia coli, ML4707, 10^6 cells/ml; Gram -; Table 1; read-out: MIC
[5] = system: Staphylococcus aureus 209 P; assay: as above; format: cell-based; conditions: Staphylococcus aureus, 209P; 10^6 cells/ml; Gram +; read-out: MIC
[6] = system: Bacillus subtilis PCI 219; assay: as above; format: cell-based; conditions: Bacillus subtilis, PCI219; 10^6 cells/ml; Gram +; read-out: MIC
E. coli ATCC 10536 = assay: as above; format: cell-based, Escherichia coli; conditions: Escherichia coli, ATCC10536; 10^6 cells/ml; Gram -; read-out: MIC
[7] = system: Clostridium difficile I-E; assay: as above; format: cell-based; conditions: Clostridioides difficile; 10^6 cells/ml; Gram +
S. pneumoniae IID 552 = assay: as above; format: cell-based; conditions: Streptococcus pneumoniae, IID552; 10^6 cells/ml; Gram +; read-out: MIC
C. ramosum = assay: as above; format: cell-based; conditions: Thomasclavelia ramosa; 10^6 cells/ml; Gram +; read-out: MIC
[8] = system: Veillonella parvula KYA 10790; assay: as above; format: cell-based; conditions: Veillonella parvula, KYA10790; 10^6 cells/ml; Gram -; read-out: MIC
[9] = system: Fusobacterium mortiferum 4249; assay: as above; format: cell-based; conditions: Fusobacterium mortiferum, 4249; 10^6 cells/ml; Gram -; read-out: MIC
K. pneumoniae 1-220S = assay: as above; format: cell-based, Klebsiella pneumoniae; conditions: Klebsiella pneumoniae, 1220S; 10^6 cells/ml; Gram -; read-out: MIC
[10] = system: Bacteroides fragilis GM 7000; assay: as above; format: cell-based; conditions: Bacteroides fragilis, GM7000; 10^6 cells/ml; Gram -; read-out: MIC
[11] = system: Citrobacter freundii IID 976; assay: as above; format: cell-based; conditions: Citrobacter freundii, IID976; 10^6 cells/ml; Gram -; read-out: MIC
B. distasonis 8503 = assay: as above; format: cell-based; conditions: Parabacteroides distasonis, 8503; 10^6 cells/ml; Gram -; read-out: MIC
B. fragilis 25285 = assay: as above; format: cell-based, Bacteroides fragilis; conditions: Bacteroides fragilis, 25285; 10^6 cells/ml; Gram -; read-out: MIC
[12] = system: Proteus vulgaris IFO 3167; assay: as above; format: cell-based; conditions: Proteus vulgaris, IFO3167; 10^6 cells/ml; Gram -; read-out: MIC
[13] = system: Pseudomonas aeruginosa V-1; assay: as above; format: cell-based; conditions: Pseudomonas aeruginosa, V1
[14] = system: Peptostreptococcus anaerobius KYA 27337; assay: as above; format: cell-based; conditions: Peptostreptococcus anaerobius, KYA27337; 10^6 cells/ml; Gram +; read-out: MIC
Shigella sonnei IID 969 = assay: as above; format: cell-based; conditions: Shigella sonnei, IID969; 10^6 cells/ml; Gram -; read-out: MIC
Procedure: Minimal inhibitory concentrations (MICs) were determined in accordance with the method recommended by Japan Society of Chemotherapy.

B. fragilis 0558 = assay: as above; format: cell-based, Bacteroides fragilis; conditions: Bacteroides fragilis, 0558; 10^6 cells/ml; Gram -; read-out: MIC
E. limosum KYA 8486 = assay: as above; format: cell-based; conditions: Eubacterium limosum, KYA8486; 10^6 cells/ml; Gram +; read-out: MIC
F. necrophorum S-45 = assay: as above; format: cell-based; conditions: Fusobacterium necrophorum, S45; 10^6 cells/ml; Gram -; read-out: MIC
P. cepacia GIFU 518 = assay: as above; format: cell-based; conditions: Burkholderia cepacia, GIFU518
F. varium KYA 8501 = assay: as above; format: cell-based; conditions: Fusobacterium varium, KYA8501; 10^6 cells/ml; Gram -; read-out: MIC
[15] = system: Salmonella enteritidis IID 604; assay: as above; format: cell-based; conditions: Salmonella enterica; 10^6 cells/ml; Gram -; read-out: MIC
[16] = system: Yersinia enterocolitica IID 981; assay: as above; format: cell-based; conditions: Yersinia enterocolitica, IID981; 10^6 cells/ml; Gram -; read-out: MIC
[17] = 10^6 cells/ml, Gram -, read-out: MIC

Structure (SMILES) | MIC (C. perfringens KYA 13123) | MIC (S. aureus Smith) | MIC [1] | MIC [2] | MIC (S. epidermidis IID 866) | MIC [3] | MIC (E. faecalis IID 682) | MIC [4] | MIC (E. coli ML 4707) | MIC [5] | MIC [6] | MIC (E. coli ATCC 10536) | MIC [7] | MIC (S. pneumoniae IID 552) | MIC (C. ramosum) | MIC [8] | MIC [9] | MIC (K. pneumoniae 1-220S) | MIC [10] | MIC [11] | also measured
C[C@H]1CN(c2c(F)cc3c(=O)c(C(=O)O)cn(CCF)c3c2F)C[C@H]1N (relative stereo) [Example 25, 7-(cis-b 3-Amino-4-methyl-1-pyrrolidinyl)-6,8-difluoro-1-(2-fluoroethyl)-1,4-dihydro-4-oxo-3-quinolinecarboxylic acid] | 0.78 µg/mL (≈ 2.11 µM) | 0.39 µg/mL (≈ 1.06 µM) | 0.78 µg/mL (≈ 2.11 µM) | 25 µg/mL (≈ 67.7 µM) | 0.39 µg/mL (≈ 1.06 µM) | 0.78 µg/mL (≈ 2.11 µM) | 0.78 µg/mL (≈ 2.11 µM) | 1.56 µg/mL (≈ 4.22 µM) | 0.05 µg/mL (≈ 0.135 µM) | 0.2 µg/mL (≈ 0.542 µM) | 0.1 µg/mL (≈ 0.271 µM) | 0.05 µg/mL (≈ 0.135 µM) | 6.25 µg/mL | 0.78 µg/mL (≈ 2.11 µM) | 25 µg/mL (≈ 67.7 µM) | 0.78 µg/mL (≈ 2.11 µM) | 3.13 µg/mL (≈ 8.47 µM) | 0.2 µg/mL (≈ 0.542 µM) | 6.25 µg/mL (≈ 16.9 µM) | 0.1 µg/mL (≈ 0.271 µM) | MIC (B. distasonis 8503): 6.25 µg/mL (≈ 16.9 µM); MIC (B. fragilis 25285): 3.13 µg/mL (≈ 8.47 µM); MIC [12]: 0.05 µg/mL (≈ 0.135 µM); MIC [13]: 0.78 µg/mL (≈ 2.11 µM); MIC [14]: 3.13 µg/mL (≈ 8.47 µM); MIC (Shigella sonnei IID 969): 0.78 µg/mL (≈ 2.11 µM); MIC (B. fragilis 0558): 3.13 µg/mL (≈ 8.47 µM); MIC (E. limosum KYA 8486): 6.25 µg/mL (≈ 16.9 µM); MIC (F. necrophorum S-45): 3.13 µg/mL (≈ 8.47 µM); MIC (P. cepacia GIFU 518): 1.56 µg/mL (≈ 4.22 µM); MIC (F. varium KYA 8501): 6.25 µg/mL (≈ 16.9 µM); MIC [15]: 0.1 µg/mL (≈ 0.271 µM); MIC [16]: 0.1 µg/mL (≈ 0.271 µM)
C[C@H]1CN(c2c(F)cc3c(=O)c(C(=O)O)cn(CCF)c3c2Cl)C[C@H]1N (relative stereo) [Example 27, 7-(cis-3-Amino-4-methyl-1-pyrrolidinyl)-8-chloro-6-fluoro-1-(2-fluoroethyl)-1,4-dihydro-4-oxo-3-quinolinecarboxylic acid] | 0.39 µg/mL (≈ 1.01 µM) | 0.2 µg/mL (≈ 0.518 µM) | 0.78 µg/mL (≈ 2.02 µM) | 12.5 µg/mL (≈ 32.4 µM) | 0.2 µg/mL (≈ 0.518 µM) | 0.78 µg/mL (≈ 2.02 µM) | 0.78 µg/mL (≈ 2.02 µM) | 1.56 µg/mL (≈ 4.04 µM) | 0.05 µg/mL (≈ 0.13 µM) | 0.2 µg/mL (≈ 0.518 µM) | 0.1 µg/mL (≈ 0.259 µM) | 0.05 µg/mL (≈ 0.13 µM) | 6.25 µg/mL | 0.78 µg/mL (≈ 2.02 µM) | 25 µg/mL (≈ 64.8 µM) | 0.39 µg/mL (≈ 1.01 µM) | 1.56 µg/mL (≈ 4.04 µM) | 0.2 µg/mL (≈ 0.518 µM) | 1.56 µg/mL (≈ 4.04 µM) | 0.1 µg/mL (≈ 0.259 µM) | MIC (B. distasonis 8503): 6.25 µg/mL (≈ 16.2 µM); MIC (B. fragilis 25285): 1.56 µg/mL (≈ 4.04 µM); MIC [12]: 0.05 µg/mL (≈ 0.13 µM); MIC [13]: 0.39 µg/mL (≈ 1.01 µM); MIC [14]: 1.56 µg/mL (≈ 4.04 µM); MIC (Shigella sonnei IID 969): 0.78 µg/mL (≈ 2.02 µM); MIC (B. fragilis 0558): 1.56 µg/mL (≈ 4.04 µM); MIC (E. limosum KYA 8486): 6.25 µg/mL (≈ 16.2 µM); MIC (F. necrophorum S-45): 1.56 µg/mL (≈ 4.04 µM); MIC (P. cepacia GIFU 518): 0.78 µg/mL (≈ 2.02 µM); MIC (F. varium KYA 8501): 6.25 µg/mL (≈ 16.2 µM); MIC [15]: 0.1 µg/mL (≈ 0.259 µM); MIC [16]: 0.1 µg/mL (≈ 0.259 µM)
CC1COc2c(N3C[C@@H](N)[C@@H](C)C3)c(F)cc3c(=O)c(C(=O)O)cn1c23.Cl (relative stereo) [Example 29, 10-(cis-3-Amino-4-methyl-1-pyrrolidinyl)-9-fluoro-2,3-dihydro-3-methyl-7-oxo-7H-pyrido[1,2,3-de][1,4]benzoxazine-6-carboxylic acid hydrochloride] | 0.39 µg/mL | 0.2 µg/mL | 0.39 µg/mL | 12.5 µg/mL | 0.2 µg/mL | 1.56 µg/mL | 0.39 µg/mL | 1.56 µg/mL | 0.05 µg/mL | 0.2 µg/mL | 0.05 µg/mL | 0.05 µg/mL | 6.25 µg/mL | 0.39 µg/mL | 12.5 µg/mL | 0.39 µg/mL | 0.78 µg/mL | 0.2 µg/mL | 3.13 µg/mL | 0.1 µg/mL | MIC (B. fragilis 25285): 1.56 µg/mL; MIC [12]: 0.05 µg/mL; MIC [13, 17]: 0.39 µg/mL; MIC [14]: 1.56 µg/mL; MIC (Shigella sonnei IID 969): 0.05 µg/mL; MIC (B. fragilis 0558): 1.56 µg/mL; MIC (E. limosum KYA 8486): 6.25 µg/mL; MIC (F. necrophorum S-45): 0.78 µg/mL; MIC (P. cepacia GIFU 518; [17]): 1.56 µg/mL; MIC (F. varium KYA 8501): 6.25 µg/mL; MIC [15]: 0.1 µg/mL; MIC [16]: 0.2 µg/mL
